Data published in ChEMBL document CHEMBL4396898, “Design and synthesis of 3-aminophthalazine derivatives and structural analogues as PDE5 inhibitors: anti-allodynic effect against neuropathic pain in a mouse model” (Eur J Med Chem, 2019).
In brackets after ≈: the same amount, converted by molar mass.

What was measured:
physchem [1] = details: saline
physchem [2] = details: methanol:water:HCl, pH 1

Clc1cccc(Nc2nnc(-c3ccccc3)c3ccccc23)c1 gave a solubility at 24 h (physchem [1]) of 63 µg/mL (≈ 190 µM).
In the case of COc1ccc(CNc2nn(C)c3ccc(C(F)(F)F)cc23)cc1, the remaining at 96 h (physchem [2]) is reported as 100%.
For COc1ccc(CNc2nn(-c3cccnc3)c3ccc(C(F)(F)F)cc23)cc1, the solubility at 24 h (physchem [1]) was 15 µg/mL (≈ 37.7 µM) and the remaining at 96 h (physchem [2]) was 100%.
